Results reported in publication PMC10759180 (RSC Advances, 2024).
Entries after “also recorded” stand apart in the source; their conditions may differ. One block for each compound: values may come before it.

Tests used:
[1] = system: Escherichia coli; experiment: Antibacterial disc diffusion assay, Escherichia coli; type: cell-based; details: for Antibacterial zone of inhibition, Escherichia coli: disc diffusion, samples 100 μM, kanamycin 10 μM, 24 hours at 37 °C
[2] = system: Pseudomonas aeruginosa; experiment: Antibacterial disc diffusion assay, Pseudomonas aeruginosa; type: cell-based; details: samples 100 μM, kanamycin 10 μM, 24 hours at 37 °C
[3] = system: Bacillus subtilis; experiment: Antibacterial disc diffusion assay, Bacillus subtilis; type: cell-based; details: samples 100 μM, kanamycin 10 μM, 24 hours at 37 °C
[4] = system: Staphylococcus aureus; experiment: Antibacterial disc diffusion assay, Staphylococcus aureus; type: cell-based; details: for Antibacterial zone of inhibition, Staphylococcus aureus: disc diffusion, samples 100 μM, kanamycin 10 μM, 24 hours at 37 °C
[5] = system: Candida albicans; experiment: Antifungal disc diffusion assay, Candida albicans; type: cell-based; details: read-out: Antifungal zone of inhibition, Candida albicans
[6] = target: urease (Canavalia ensiformis, UniProt P07374); details: read-out: Urease activity IC50 ± SEM; pH 8.2
Chain of urease (P07374 whole entry, looked up): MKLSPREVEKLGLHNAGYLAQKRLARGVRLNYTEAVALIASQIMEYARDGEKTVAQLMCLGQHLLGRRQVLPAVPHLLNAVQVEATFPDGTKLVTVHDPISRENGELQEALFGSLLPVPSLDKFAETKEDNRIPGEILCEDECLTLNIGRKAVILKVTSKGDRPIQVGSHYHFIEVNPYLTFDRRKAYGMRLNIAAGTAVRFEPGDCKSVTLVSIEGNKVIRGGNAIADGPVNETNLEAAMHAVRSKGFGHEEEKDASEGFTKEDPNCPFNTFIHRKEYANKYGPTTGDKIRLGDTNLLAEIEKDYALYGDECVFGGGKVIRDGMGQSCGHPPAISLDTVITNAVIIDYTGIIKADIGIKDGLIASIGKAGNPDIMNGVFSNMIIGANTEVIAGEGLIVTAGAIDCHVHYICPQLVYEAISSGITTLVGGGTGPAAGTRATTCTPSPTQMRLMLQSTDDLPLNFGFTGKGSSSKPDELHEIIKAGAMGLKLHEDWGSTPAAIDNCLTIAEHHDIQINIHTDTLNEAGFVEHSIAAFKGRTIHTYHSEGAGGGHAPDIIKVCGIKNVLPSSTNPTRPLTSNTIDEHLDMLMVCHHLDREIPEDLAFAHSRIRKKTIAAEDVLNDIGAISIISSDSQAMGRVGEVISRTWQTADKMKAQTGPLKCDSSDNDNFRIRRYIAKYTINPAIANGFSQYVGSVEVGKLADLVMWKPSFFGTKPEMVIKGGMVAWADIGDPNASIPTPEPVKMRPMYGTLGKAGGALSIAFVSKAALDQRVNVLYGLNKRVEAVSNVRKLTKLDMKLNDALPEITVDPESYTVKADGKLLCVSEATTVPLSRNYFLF

[7] = target: α-amylase; experiment: In vitro α-amylase inhibition assay; type: biochemical; details: read-out: α-Amylase activity IC50 ± SEM; mean ± SEM, triplicate; iodine starch method, pH 6.8, 50 °C, 30 minutes

Compound: NC[C@H]1O[C@H](O[C@H]2[C@H](O)[C@@H](O[C@H]3O[C@H](CO)[C@@H](O)[C@H](N)[C@H]3O)[C@H](N)C[C@@H]2N)[C@H](O)[C@@H](O)[C@@H]1O [Kanamycin, reference compound]
Antibacterial zone of inhibition, Escherichia coli [1]: 16 mm
Antibacterial zone of inhibition, Pseudomonas aeruginosa [2]: 20 mm
Antibacterial zone of inhibition, Bacillus subtilis [3]: 22 mm
Antibacterial zone of inhibition, Staphylococcus aureus [4]: 18 mm

Compound: CN(C/C=C/C#CC(C)(C)C)Cc1cccc2ccccc12 [Terbinafine]
zone of inhibition at 10 µM [5]: 20 mm

Compound: NC(N)=S [Thiourea]
IC50 [6]: 9.8 ± 0.1 µM

IC50 [7]: 110 ± 1.56 µM
Compound: Cc1ccc(C(=O)N(C(=O)c2ccc(C)cc2)C(=S)N2N=C(c3ccc(C)cc3)CC2c2ccc(Cl)cc2)cc1 (stereo not shown) [Compound 5j, N-(5-(4-Chlorophenyl)-3-(p-tolyl)-4,5-dihydro-1H-pyrazole-1-carbonothioyl)-4-methyl-N-(4-methylbenzoyl)benzamide]

IC50 [7]: 90.3 ± 1.08 µM
Compound: Cc1ccc(C(=O)N(C(=O)c2ccc(C)cc2)C(=S)N2N=C(c3ccc(Br)cc3)CC2c2cccc(F)c2)cc1 (stereo not shown) [Compound 5f, N-(3-(4-Bromophenyl)-5-(3-fluorophenyl)-4,5-dihydro-1H-pyrazole-1-carbonothioyl)-4-methyl-N-(4-methylbenzoyl)benzamide]

IC50 [7]: 121 ± 3.75 µM
Compound: Cc1ccc(C(=O)N(C(=O)c2ccc(C)cc2)C(=S)N2N=C(c3ccccc3)CC2c2ccc(C)cc2)cc1 (stereo not shown) [Compound 5h, 4-Methyl-N-(4-methylbenzoyl)-N-(3-phenyl-5-(p-tolyl)-4,5-dihydro-1H-pyrazole-1-carbonothioyl)benzamide]

IC50 [7]: 99.3 ± 0.62 µM
Compound: Cc1ccc(C(=O)N(C(=O)c2ccc(C)cc2)C(=S)N2N=C(c3ccc(F)cc3)CC2c2cccc(F)c2)cc1 (stereo not shown) [Compound 5b, N-(5-(3-Fluorophenyl)-3-(4-fluorophenyl)-4,5-dihydro-1H-pyrazole-1-carbonothioyl)-4-methyl-N-(4-methylbenzoyl)benzamide]

IC50 [7]: 104 ± 3.18 µM
Compound: Cc1ccc(C(=O)N(C(=O)c2ccc(C)cc2)C(=S)N2N=C(c3ccccc3)CC2c2ccc(F)cc2)cc1 (stereo not shown) [Compound 5d, N-(5-(4-Fluorophenyl)-3-phenyl-4,5-dihydro-1H-pyrazole-1-carbonothioyl)-4-methyl-N-(4-methylbenzoyl)benzamide]
zone of inhibition at 100 µM ([1]; Escherichia coli, 24 h, read-out: Antibacterial zone of inhibition, Escherichia coli): 7 mm
Antibacterial zone of inhibition, Escherichia coli [1]: significant antibacterial activity; also recorded: excellent bacterial inhibition zone
zone of inhibition at 100 µM ([4]; Staphylococcus aureus, 24 h, read-out: Antibacterial zone of inhibition, Staphylococcus aureus): 10 mm
Antibacterial zone of inhibition, Staphylococcus aureus [4]: significant antibacterial activity; also recorded: excellent bacterial inhibition zone

IC50 [7]: 131 ± 1.56 µM
Compound: Cc1ccc(C(=O)N(C(=O)c2ccc(C)cc2)C(=S)N2N=C(c3ccc(Cl)cc3)CC2c2ccc(Cl)cc2)cc1 (stereo not shown) [Compound 5g, N-(3,5-Bis(4-chlorophenyl)-4,5-dihydro-1H-pyrazole-1-carbonothioyl)-4-methyl-N-(4-methylbenzoyl)benzamide]

IC50 [7]: 118.4 ± 0.64 µM
Compound: Cc1ccc(C(=O)N(C(=O)c2ccc(C)cc2)C(=S)N2N=C(c3ccc(F)cc3)CC2c2ccc(F)cc2)cc1 (stereo not shown) [Compound 5a, N-(3,5-Bis(4-fluorophenyl)-4,5-dihydro-1H-pyrazole-1-carbonothioyl)-4-methyl-N-(4-methylbenzoyl)benzamide]

IC50 [7]: 97.4 ± 1.53 µM
Compound: Cc1ccc(C(=O)N(C(=O)c2ccc(C)cc2)C(=S)N2N=C(c3ccc(Br)cc3)CC2c2ccc(F)cc2)cc1 (stereo not shown) [Compound 5e, N-(3-(4-Bromophenyl)-5-(4-fluorophenyl)-4,5-dihydro-1H-pyrazole-1-carbonothioyl)-4-methyl-N-(4-methylbenzoyl)benzamide]

IC50 [7]: 114.6 ± 0.28 µM
Compound: Cc1ccc(C(=O)N(C(=O)c2ccc(C)cc2)C(=S)N2N=C(c3ccc(C)cc3)CC2c2ccc(F)cc2)cc1 (stereo not shown) [Compound 5i, N-(5-(4-Fluorophenyl)-3-(p-tolyl)-4,5-dihydro-1H-pyrazole-1-carbonothioyl)-4-methyl-N-(4-methylbenzoyl)benzamide]
